Entries after “also recorded” stand apart in the source; their conditions may differ. Like-named read-outs stand apart in the source and are kept apart here.
How the values were obtained:
HEK293T cells = assay: TOP/FOP flash luciferase reporter assay; format: cell-based
Method: Luciferase Assay. 150,000 HEK293T cells were seeded in triplicate per condition and kept for 24 hours at 37° C. with 5% CO2. The cultures were transfected with TOPflash or FOPflash (400 ng), which are firefly-luciferase reporter DNA constructs (Milipore), using LipofectAMINE 2000 (Invitrogen). To control for transfection pRL-TK (10 ng) was included in all transfections. […] Values were normalized by the renilla value from the same well. To statistically compare treatments ANOVA was used.

GSK-3β = assay: Immunoblot of GSK-3β phosphorylation and β-catenin in Wt hippocampal slices; format: cell-based, mice
Method: Immunoblotting. The hippocampus and cortex of treated or control transgenic mice were dissected on ice and immediately processed has detailed previously (Toledo & Inestrosa 2010). Briefly, hippocampal and cortical tissues were homogenized in RIPA buffer (10 mM Tris-Cl, pH 7.4, EDTA 5 mM, 1% NP-40, 1% sodium deoxycholate, and 1% SDS) supplemented with a protease inhibitor mixture and phosphatase inhibitors (25 mMNaF, […] and 30 μM Na4P207) using a Potter homogenizator and then passed sequentially through different caliber syringes. Protein samples were centrifuged at 14000 rpm at 4° C. twice for 15 min. Protein concentrations were determined using the BCA Protein Assay Kit (Pierce). Samples were resolved by SDS-PAGE followed by immunoblotting on PVDF membranes. Western blot assays were carried out as previously described (Inestrosa et al 2013; Toledo & Inestrosa 2010).
Slice Preparation and Electrophysiology. Hippocampal slices were prepared according to standard procedures previously described (Cerpa et al 2010; VarelaNallar et al 2010). Briefly, transverse slices (350 μm) from the dorsal hippocampus were cut under cold artificial cerebrospinal fluid (ACSF, in mM: 124 NaCl, […], 10 D-glucose, 2.69 KCl, 1.25 KH2PO4 2.5 CaCl2, 1.3 MgSO4, y 2.60 NaHPO4) using a V ibratome (Leica VT 1000s, Germany) and incubated in ACSF for 1 h at room temperature. In all experiments, 10 μM picrotoxin (PTX) was added to suppress inhibitory GABAA transmission (Cuitino et al 2010). Slices were transferred to an experimental chamber (2 ml), superfused (3 ml/min, at 20-22° C.) with gassed ACSF and visualized by trans-illumination with a binocular microscope (MSZ-10, Nikon, Melville, N.Y.). […] The paired pulse facilitation index was calculated by ((R2−R1)/R1), where R1 and R2 were the peak amplitudes of the first and second fEPSP respectively. […] Evoked postsynaptic responses were analyzed off-line, using an analysis software (pClampfit, Molecular Devices), which allowed visual detection of events, computing only those events that exceeded and arbitrary threshold.

[1] = tested on: Aβ aggregates in brain of APPswe/PS-1 mice; assay: Thioflavine-S staining of amyloid plaques in treated APPswe/PS-1 mice; format: in vivo
[2] = tested on: APPswe/PS-1 double transgenic mice; assay: Memory flexibility test (modified Morris Water Maze); format: in vivo; details: 7-month-old APPswe/PS-1 mice, 2.0 mg/kg IP three times per week, four weeks, vs Tg control
[3] = target: T1, Immunoprecipitated GSK-3β from hippocampus of wild-type mice (Mus musculus, UniProt Q9WV60); assay: Luminometric GSK-3β activity assay; format: biochemical
T1 construct: the hippocampus of two month-old wild-type mice were lysed in immunoprecipitation buffer; from tissue; host or cells: hippocampus of two-month-old wild-type mice, immunoprecipitated with anti-GSK-3β antibody (Santa Cruz Biotechnology) on protein G beads
Method: Immunoprecipitation. The immunoprecipitation was performed as previously described (Garrido et al, 2002). Briefly, the hippocampus of two month-old wild-type mice were lysed in immunoprecipitation buffer (25 mM HEPES pH 7.4, 125 mM NaCl, 25 mM NaF, 1 mM EDTA, 1 mM EGTA, 1% NP-40) including phosphatase inhibitors (1 mM NaVO3 and 200 nM okadaic acid) and the protease inhibitor cocktail described above. 200 μg of total proteins from lysate were precleared by using protein G-Sepharose beads (Santa Cruz Biotechnology) for 1 h at 4° C. and then were incubated with anti-GSK-3β antibody (Santa Cruz Biotechnology) and new protein G beads for 4 h at 4° C. The immunocomplexes were finally pelleted and washed three times with cold immunoprecipitation buffer.
GSK-3β activity assay. IC50 of ANDRO was determined by a luminometric GSK-3β activity assay. […] Briefly, ANDRO was tested at different concentrations and diluted in kinase buffer containing final concentrations of: 40 mM Tris pH 7.5; 20 mM MgCl2; 0,1 mg/ml BSA. Diluted ANDRO was added to 25 μM pGS-2 peptide substrate (Millipore, Billerica, USA), immunoprecipited GSK-3β and 10 μM ATP (Cell Signaling, Boston, USA) to a total assay volume of 50 μl. The enzymatic reaction was stopped after 10 min of incubation to room temperature by adding 50 μl Kinase Glo (Promega, Madison, USA). The luminometric signal was allowed to stabilize for 10 min and the measured with a Luminometer TURNER DESIGNS model TD-2020.
Immunoprecipitated GSK-3β from hippocampus of wild-type mice was incubated with ATP and pGS-2 peptide substrate for 5 min, then the reaction was stopped and the kinase activity was determined in a luminometer.

[4] = tested on: synaptic proteins in hippocampus and cortex of APPswe/PS-1 mice; assay: Immunoblotting of synaptic proteins in treated APPswe/PS-1 mice; format: in vivo
[5] = Wt hippocampal slices, 10 μM ANDRO for 1 hr
[6] = young APPswe/PS-1 mice, vs controls

T1 sequence (Q9WV60 whole entry): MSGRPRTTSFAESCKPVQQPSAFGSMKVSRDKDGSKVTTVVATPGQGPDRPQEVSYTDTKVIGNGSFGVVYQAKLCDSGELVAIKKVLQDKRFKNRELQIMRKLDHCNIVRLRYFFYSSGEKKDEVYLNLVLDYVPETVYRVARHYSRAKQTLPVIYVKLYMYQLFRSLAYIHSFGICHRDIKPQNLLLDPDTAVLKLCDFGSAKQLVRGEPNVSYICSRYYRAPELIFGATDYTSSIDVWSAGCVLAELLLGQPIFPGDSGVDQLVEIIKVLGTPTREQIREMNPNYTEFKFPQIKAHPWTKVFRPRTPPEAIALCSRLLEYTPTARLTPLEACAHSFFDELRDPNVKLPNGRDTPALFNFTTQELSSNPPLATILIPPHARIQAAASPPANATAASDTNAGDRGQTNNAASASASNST

Compound: C=C1CC[C@@H]2C(C)(CO)[C@H](O)CC[C@@]2(C)C1C/C=C1/C(=O)OC[C@H]1O (stereo in doubt) [ANDRO, 3-(2-(Decahydro-6-hydroxy-5-(hydroxymethyl)-5,8a-dimethyl-2-methylenenaphthyl)ethylidene)dihydro-4-hydroxyfuran-2(3H)-one]
- TOPflash reporter activity (HEK293T cells; ANDRO 10 μM or 6-BIO 10 nM, 24 h): significant increase
- increase of luciferase reporter over control (HEK293T cells; TOPflash, HEK293T): 4 fold
- levels of β-catenin (GSK-3β; Wt hippocampal slices incubated with ANDRO): increase in the levels of β-catenin
- active form of GSK-3β (Tyr-216 phosphorylation) (GSK-3β; [5]): decrease of Tyr-216 phosphorylation; also recorded: reduction of the active form
- inactive form of GSK-3β (Ser-9 phosphorylation) (GSK-3β; [5]): increment of Ser-9 phosphorylation; also recorded: increase in the levels of the inactive form
- plaque size distribution (cumulative frequency) ([1]; 7 month-old APPswe/PS-1 mice): shift in their distribution toward smaller plaque size
- amyloid plaques stained with Th-S ([1]; 7 month-old APPswe/PS-1 mice, cortex and hippocampus, vs untreated): reduction of amyloid plaques
- amyloid deposit levels (amyloid burden area) ([1]; hippocampus or cortex, FIG. 3F (12 month-old mice per legend)): no change in amyloid deposit levels
- immature plaques (type 1) [1, 6]: increase significantly
- type 2a and 2c plaques in the total brain [1, 6]: no significant differences
- type 2b plaques [1, 6]: significantly decreased
- number of trial to criterion of learning [2]: reduction in the number of trial to criterion of learning
- IC50 ([3]; different concentrations of ATP, read-out: IC50 using different concentrations of ATP): ~5.58 µM
- IC50 with increased substrate concentration ([3]; different concentrations of the substrate): increase in the IC50
- IC50 ([3]; preincubation 10 min, 10 μM ATP, 25 μM pGS-2 peptide substrate, read-out: IC50 of GSK-3β activity): 5.58 µM
- PSD-95 and GluA2 levels ([4]; mature (12-month-old) Tg mice): increase of PSD-95 and GluA2 levels
- total levels of pre-synaptic proteins SYP and VAMP ([4]; young APPswe/PS-1 mice): unaltered
- levels of post-synaptic proteins (Shank, GluN2B, GluA2, PSD-95) ([4]; young APPswe/PS-1 mice, hippocampus and cortex): significantly recovers the post-synaptic proteins

— patent publication US20220409573A1, “Hippocampus Regeneration And Memory Recovery” (INNOBIOSCIENCE, LLC, priority 2021, published 2022)
